Consider 21 compounds from patent publication US8338450B2, “Compounds as dipeptidyl peptidase IV (DPP IV) inhibitors” (Lupin Limited, priority 2007, dated 2012).

Usually inhibition stands for the relative decrease from the control value, in per cent. In general, IC50 refers to the point on the concentration scale where inhibition reaches its midpoint.

Where a name gives a salt, the structure may show the parent alone.

In the first experiment the target is T1, human recombinant DPP-IV (Homo sapiens, UniProt P27487).
T1 construct: purchased R&D Systems, USA (or produced in-house)
T1 sequence (P27487 whole entry): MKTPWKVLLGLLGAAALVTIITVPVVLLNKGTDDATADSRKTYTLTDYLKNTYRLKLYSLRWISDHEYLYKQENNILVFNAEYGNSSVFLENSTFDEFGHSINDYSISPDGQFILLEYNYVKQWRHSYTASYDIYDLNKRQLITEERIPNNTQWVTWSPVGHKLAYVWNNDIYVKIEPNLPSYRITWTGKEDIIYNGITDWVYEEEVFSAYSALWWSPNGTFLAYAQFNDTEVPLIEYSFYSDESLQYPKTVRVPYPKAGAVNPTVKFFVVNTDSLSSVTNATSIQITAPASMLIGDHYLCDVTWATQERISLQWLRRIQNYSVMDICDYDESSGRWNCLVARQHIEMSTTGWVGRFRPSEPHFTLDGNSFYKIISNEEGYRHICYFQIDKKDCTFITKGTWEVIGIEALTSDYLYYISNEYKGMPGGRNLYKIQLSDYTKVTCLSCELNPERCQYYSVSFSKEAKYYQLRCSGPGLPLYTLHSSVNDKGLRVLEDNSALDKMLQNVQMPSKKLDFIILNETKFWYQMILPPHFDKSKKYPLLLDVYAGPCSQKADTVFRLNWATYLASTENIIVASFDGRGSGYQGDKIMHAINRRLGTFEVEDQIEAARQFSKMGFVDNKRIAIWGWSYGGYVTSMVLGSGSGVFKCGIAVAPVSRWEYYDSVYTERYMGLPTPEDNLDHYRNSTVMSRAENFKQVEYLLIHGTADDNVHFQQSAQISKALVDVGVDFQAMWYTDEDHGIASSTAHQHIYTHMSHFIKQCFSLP
The experiment in a line: Inhibition of human recombinant DPP-IV (Gly-Pro-AMC hydrolysis, fluorometric). In kind it is biochemical. The settings on record: compound 10 nM; relative to vehicle controls. As to the method: Inhibition of Human Recombinant DPP-IV
The proteolytic activity of human recombinant DPP-IV was determined by following the hydrolysis of Gly-Pro-7-amino-4-methylcoumarin (Gly-Pro-AMC) and the fluorometric quantitation of the liberated AMC. Assays were routinely carried out in 96-well flat-bottom black microwell plates. The reaction mixture (100 μl) contained 10 ng of human recombinant DPP-IV enzyme (produced in-house or procured from R&D Systems, USA) in the assay buffer (25 mM Tris-HCl, pH 7.4, 140 mM NaCl, 10 mM KCl and 0.1 mg/ml BSA) and 50 μM Gly-Pro-AMC. After incubation of assay plates at 30° C. for 30 min, the hydrolysis of Gly-Pro-AMC was monitored in a fluorescence microplate reader (Molecular Devices SpectraMax M5), with excitation and emission wavelengths set at 360 nm and 460 nm, respectively.
The inhibition of DPP-IV activity by test compounds was routinely performed by preincubating the enzyme with test compound (10 and 100 nM for primary screening and 8 concentrations from 0.1 to 1000 nM for the dose-response study) or vehicle (0.01% DMSO) for 15 min at 30° C., in a total volume of 90 μl. Test compounds were dissolved in DMSO at a concentration of 10 mM and serially diluted further in assay buffer. The enzyme reaction was initiated by the addition of Gly-Pro-AMC, followed by incubation of assay plates for 30 min at 30° C. and the liberated AMC was measured as described above. A known inhibitor of DPP-IV (positive control) was always included in the assay. Test compounds at various concentrations were always evaluated in duplicate, along with substrate blanks, vehicle controls and positive controls.
The results are expressed as percent inhibition of the enzyme activity relative to vehicle controls. Dose-response studies were conducted for those compounds exerting ≧50% inhibition of activity at 10 nM in primary screening. IC50, defined as the inhibitor concentration which caused a 50% decrease of the activity under assay conditions, was computed using GraphPad Prism software, version 5.0.
The DPP-IV inhibition data (expressed either as IC50 in nanomolar or percent inhibition at a particular compound concentration) is presented in Table 1.
As to `N[C@H](C(=O)N1CCC[C@H]1CO)C1CC2CCC(C1)N2C(=O)c1ccc2c(c1)OCO2.O=C(O)C(F)(F)F` (stereo partly drawn) [Compound 14, (2S)-{(2S)-1-[(2S)-2-Amino-2-(8-(benzo[1,3]dioxole-5-carbonyl)-8-aza-bicyclo[3.2.1]-oct-3-yl)-exo-acetyl]-pyrrolidin-2-yl}methanol trifluoroacetic acid salt], the “% inhibition at 10 nM” value is recorded as 12% inhibition at 10 nM.

The same experiment, now with this note: compound 10 nM; relative to vehicle controls; read-out: % inhibition at 10 nM.
Turning to `N#C[C@H]1CC[C@@H](C(=O)OCc2ccccc2)N1C(=O)[C@@H](N)C1CC2CCC(C1)N2C(=O)c1ccc(C(F)(F)F)cc1` (stereo partly drawn) [Compound 18, Benzyl-(2S,5R)-1-{(2S)-2-amino-2-[8-(4-trifluoromethyl-benzoyl)-8-aza-bicyclo[3.2.1]-oct-3-yl]-exo-ethanoyl}-5-cyano pyrrolidin-2-carboxylate trifluoroacetic acid salt], the inhibition at 0.01 µM came to 1.11%.

The same experiment, now with this note: compound 1000 nM; relative to vehicle controls.
For the compound `NC(=O)[C@@H]1CCCN1C(=O)[C@@H](N)C1CC2CCC(C1)N2C(=O)c1ccc(C(F)(F)F)cc1.O=C(O)C(F)(F)F` (stereo partly drawn) [Compound 12, (2S)-1-{(2S)-2-amino-2-[8-(4-trifluoromethyl-benzoyl)-8-aza-bicyclo[3.2.1]-oct-3-yl]-exo-ethanoyl}-pyrrolidin-2-carboxamide trifluoroacetic acid salt], the “% inhibition at 1000 nM” value was determined as 30% inhibition at 1000 nM.

The same experiment, now with this note: human recombinant DPP-IV, 50 μM Gly-Pro-AMC, 30 min at 30° C.
Regarding `N#C[C@@H]1CCCN1C(=O)[C@@H](N)C1CC2CCC(C1)N2C(=O)C12CC3CC(CC(C3)C1)C2` (stereo partly drawn) [Compound 3, (2S)-1-{(2S)-2-Amino-2-[8-(adamantane-1-carbonyl)-8-aza-bicyclo[3.2.1]oct-3-yl]-exo-ethanoyl}-pyrrolidin-2-carbonitrile trifluoroacetic acid salt], the IC50 is 6.67 nM. Regarding `N#C[C@@H]1CCCN1C(=O)[C@@H](N)C1CC2CCC(C1)N2C(=O)c1ccncc1` (stereo partly drawn) [Compound 4, (2S)-1-{(2S)-2-Amino-2-[8-(pyridine-4-carbonyl)-8-aza-bicyclo[3.2.1]oct-3-yl]-exo-ethanoyl}-pyrrolidin-2-carbonitrile trifluoroacetic acid salt], the 50% inhibitory concentration (IC50) was determined as 1.03 nM. Still for that read-out and setting: next, `N#Cc1ccc(C(=O)N2C3CCC2CC([C@H](N)C(=O)N2CCC[C@H]2C#N)C3)cc1` (stereo partly drawn) [Compound 5, (2S)-1-{(2S)-2-Amino-2-[8-(4-cyano-benzoyl)-8-aza-bicyclo[3.2.1]oct-3-yl]-exo-ethanoyl}-pyrrolidin-2-carbonitrile trifluoroacetic acid salt]: 1.52 nM; `N#C[C@@H]1CCCN1C(=O)[C@@H](N)C1CC2CCC(C1)N2C(=O)c1cc(F)ccc1F` (stereo partly drawn) [Compound 6, (2S)-1-{(2S)-2-Amino-2-[8-(2,5-difluorobenzoyl)-8-aza-bicyclo[3.2.1]oct-3-yl]-exo-ethanoyl}-pyrrolidin-2-carbonitrile trifluoroacetic acid salt]: 2.3 nM. On the same count and under the same terms, next, `N#C[C@@H]1CCCN1C(=O)[C@@H](N)C1CC2CCC(C1)N2C(=O)c1ccnc(F)c1` (stereo partly drawn) [Compound 7, (2S)-1-{(2S)-2-Amino-2-[8-(2-fluoro-pyridine-4-carbonyl)-8-aza-bicyclo[3.2.1]oct-3-yl]-exo-ethanoyl}-pyrrolidin-2-carbonitrile trifluoroacetic acid salt]: 1.9 nM. Regarding `N#C[C@@H]1CCCN1C(=O)[C@@H](N)C1CC2CCC(C1)N2` (stereo partly drawn) [Compound 8, (2S)-1-{(2S)-2-Amino-2-[8-aza-bicyclo[3.2.1]oct-3-yl]-exo-ethanoyl}-pyrrolidin-2-carbonitrile trifluoro acetic acid salt], the half-inhibitory concentration (IC50) came to 6.84 nM. `N#C[C@@H]1CCCN1C(=O)[C@@H](N)C1CC2CCC(C1)N2Cc1cc(F)c(F)cc1F` (stereo partly drawn) [Compound 9, (2S)-1-{(2S)-2-Amino-2-[8-(2,4,5-trifluorobenzyl)-8-aza-bicyclo[3.2.1]oct-3-yl]-exo-ethanoyl}-pyrrolidin-2-carbonitrile trifluoroacetic acid salt]: the 50% inhibitory concentration (IC50) stood at 3.13 nM. Same read-out and setting: next, `N#C[C@@H]1C[C@H](F)CN1C(=O)[C@@H](N)C1CC2CCC(C1)N2C(=O)c1cc(F)c(F)cc1F` (stereo partly drawn) [Compound 16, (2S,4S)-1-{(2S)-2-Amino-2-[8-(2,4,5-trifluorobenzoyl)-8-aza-bicyclo[3.2.1]oct-3-yl]-exo-ethanoyl}-4-fluoro-pyrrolidin-2-carbonitrile trifluoroacetic acid salt]: 2.9 nM. On to `N#C[C@@H]1C[C@H](F)CN1C(=O)[C@@H](N)C1CC2CCC(C1)N2C(=O)c1cc(F)ccc1F` (stereo partly drawn) [Compound 17, (2S,4S)-1-{(2S)-2-Amino-2-[8-(2,5-difluorobenzoyl)-8-aza-bicyclo[3.2.1]oct-3-yl]-exo-ethanoyl}-4-fluoro-pyrrolidin-2-carbonitrile trifluoroacetic acid salt], for which the half-inhibitory concentration (IC50) amounted to 2.4 nM.

Turning to `N#C[C@@H]1C[C@H](F)CN1C(=O)[C@@H](N)C1CC2CCC(C1)N2Cc1cc(F)c(F)cc1F` (stereo partly drawn) [Compound 19, (2S,4S)-1-{(2S)-2-Amino-2-[8-(2,4,5-trifluorobenzyl)-8-aza-bicyclo[3.2.1]oct-3-yl]-exo-ethanoyl}-4-fluoro-pyrrolidin-2-carbonitrile trifluoroacetic acid salt], the IC50 is 6.25 nM. Same read-out and setting: next, `N#C[C@H]1CSCN1C(=O)[C@@H](N)C1CC2CCC(C1)N2C(=O)c1ccc(C(F)(F)F)cc1` (stereo partly drawn) [Compound 20, (4S)-3-{(2S)-2-Amino-2-[8-(4-trifluoromethyl-benzoyl)-8-aza-bicyclo[3.2.1]oct-3-yl]-exo-ethanoyl}-thiazolidin-4-carbonitrile trifluoroacetetic acid salt]: 2.8 nM; `N[C@H](C(=O)N1CCSC1)C1CC2CCC(C1)N2C(=O)c1ccc(C(F)(F)F)cc1` (stereo partly drawn) [Compound 21, 3-{(2S)-2-Amino-2-[8-(4-trifluoromethyl-benzoyl)-8-aza-bicyclo[3.2.1]-oct-3-yl]-exo-ethanoyl}-1,3-thiazolidin trifluoroacetic acid salt]: 17.9 nM; `N#C[C@@H]1CCCN1C(=O)[C@@H](N)C1CC2CCC(C1)N2C(=O)Nc1ccc(C(F)(F)F)cc1` (stereo partly drawn) [Compound 22, (2S)-1-{(2S)-2-Amino-2-[8-(4-trifluoromethylphenylcarbamoyl)-8-aza-bicyclo[3.2.1]oct-3-yl]exo-ethanoyl}-pyrrolidin-2-carbonitrile trifluoroacetic acid salt]: 2.83 nM.

Take `N#C[C@@H]1C[C@@H]2C[C@@H]2N1C(=O)[C@@H](N)C1CC2CCC(C1)N2C(=O)c1cc(F)c(F)cc1F` (stereo partly drawn) [Compound 23, (1S,3S,5S)-2-{(2S)-2-Amino-2-[8-(2,4,5-trifluorobenzoyl)-8-aza-bicyclo[3.2.1]oct-3-yl]-exo-ethanoyl}-2-azabicyclo[3.1.0]hexane-3-carbonitrile trifluoroacetic acid salt]: the IC50 came out at 9.75 nM. Same read-out and setting: as for `N#Cc1ccc(C(=O)N2C3CCC2CC([C@H](N)C(=O)N2[C@H](C#N)C[C@@H]4C[C@@H]42)C3)cc1` (stereo partly drawn) [Compound 24, (1S,3S,5S)-2-{(2S)-2-Amino-2-[8-(4-cyanobenzoyl)-8-aza-bicyclo[3.2.1]oct-3-yl]-exo-ethanoyl}-2-azabicyclo[3.1.0]hexane-3-carbonitrile trifluoroacetic acid salt], the figure is 3.52 nM; as for `N#C[C@@H]1C[C@@H]2C[C@@H]2N1C(=O)[C@@H](N)C1CC2CCC(C1)N2C(=O)c1ccc(C(F)(F)F)cc1` (stereo partly drawn) [Compound 26, (1S,3S,5S)-2-{(2S)-2-Amino-2-[8-(4-trifluoromethylbenzoyl)-8-aza-bicyclo[3.2.1]oct-3-yl]-exo-ethanoyl}-2-azabicyclo[3.1.0]hexane-3-carbonitrile trifluoroacetic acid salt], 8.9 nM; as for `N#C[C@@H]1C[C@@H]2C[C@@H]2N1C(=O)[C@@H](N)C1CC2CCC(C1)N2C(=O)c1cc(F)ccc1F` (stereo partly drawn) [Compound 27, (1S,3S,5S)-2-{(2S)-2-Amino-2-[8-(2,5-difluorobenzoyl)-8-aza-bicyclo[3.2.1]oct-3-yl]-exo-ethanoyl}-2-azabicyclo[3.1.0]hexane-3-carbonitrile trifluoroacetic acid salt], 17.2 nM.

The experiment is the same for the next values; noted with them: read-out: % inhibition at 1000 nM.
In the case of `N[C@H](C(=O)N1CCC[C@H]1C(=O)O)C1CC2CCC(C1)N2C(=O)c1ccc(C(F)(F)F)cc1` (stereo partly drawn) [Compound 11, (2S)-1-{(2S)-2-amino-2-[8-(4-trifluoromethyl-benzoyl)-8-aza-bicyclo[3.2.1]-oct-3-yl]-exo-ethanoyl}-pyrrolidin-2-carboxylic acid trifluoroacetic acid salt], the inhibition at 1 µM is 29%.
